Measurements: patent US10835605B2, “Preparations of poly(lactic-co-glycolic acid)/polydopamine core/shell hybrid nanoparticle for photothermal applications” (UNIVERSITY OF SOUTH CAROLINA, priority 2015, dated 2020)

Tests used:
[1] = tested on: UMSCC 22A cells; experiment: Cellular uptake by confocal microscopy and flow cytometry; assay type: cell-based; conditions: flow cytometry, 3 h incubation, FIG. 8
Protocol: UMSCC 22A cells (300,000cells/well) were seeded in 6-well plates overnight. After that, DOX, DOX@PLGA/PD-PEG, and DOX@PLGA/PD-C nanoparticles were added at the DOX equivalent concentration of 1 μg/m L. In order to investigate the effect of EGFR on the cellular uptake of DOX@PLGA/PD-C nanoparticle, cells were pretreated with free anti-EGFR antibody (200 μg/mL) 30 min before adding DOX@PLGA/PD-C nanoparticles. The plate was incubated at 37° C. for 3 h. Then cells were washed, trypsinized and resuspended in PBS. DOX-positive cell population was quantified at Ex=488 nm, Em=585 nm using flow cytometry (BD Accuri C6, BD Biosciences).

[2] = tested on: UMSCC 22A cells; experiment: In vitro cytotoxicity (MTT cell proliferation assay) with or without NIR irradiation; assay type: cell-based; conditions: FIG. 9
Protocol: The cytotoxicity of nanoparticles was evaluated by MTT assay. UMSCC 22A cells were seeded in 96-well plate (20,000 cells/well) for 24 h prior to the study. Following, either free DOX or DOX@PLGA/PD-PEG nanoparticles with DOX concentration equal to 2, 5 and 10 μg/mL were added. For comparison, PLGA/PD-PEG (no DOX encapsulation) nanoparticles were also added. The cells were then incubated 3 h in 95/5% air/CO2 at 37° C. followed by irradiation under a 808 nm laser for 10 min. After that, all wells were washed 2 times and replaced with fresh culture medium and kept incubation for another 24 h. Finally, MTT reagent (100 μL, 10%(w/w) in medium) was added and incubated for 4h, following the addition of MTT stop solution and the measurement of the optical density of the medium using a microplate reader (ELX808, Bio-Tech Instrument, Inc.) at λ=595 nm.

[3] = tested on: UMSCC 22A cells; experiment: Tumor growth inhibitory assay, subcutaneous head and neck cancer mouse model; assay type: in vivo, female Balb/c nude mice
Protocol: UMSCC 22A cells (3×10^6 cells in 100 μL DMEM medium) were inoculated subcutaneously in female Balb/c nude mice (8-10 week old, ˜20 g, Jackson Laboratory). The tumor volume was measured by a digital caliper and calculated according to the following formula: Tumor volume=tumor length)×(tumor width)^2/2. […] For the control group, PBS was injected. Mice were exposed to an 808 nm laser irradiation (2.83 W/cm^2) 3 h post injection for 10 min. The temperature of the mice during the irradiation was recorded by the FLIR thermal camera. The tumor volumes (V) of the mice were measured every other day for 24 days. The relative tumor volume expressed as V/V0 (V0 was the tumor volume when the treatment was initiated) was used to represent the tumor size change during the whole treatment process. After 24 days, the mice were sacrificed and the blood, tumor, liver, heart, lung, kidneys, and spleen were collected for further analysis. All organs were firstly fixed in 10% neutral buffered formalin for 48 h and then washed with PBS and finally kept in 70% ethanol at 4° C.

[4] = TEM analysis of heart tissue (cardiotoxicity); assay type: in vivo, mice; conditions: hearts collected after 24 days; DOX@PLGA/PD-C coupled with NIR irradiation
Protocol: To study the cardiotoxicity of DOX, the hearts of the mice were analyzed by TEM. The formalin fixed samples were further fixed with 1% perosmic oxide for 2 h at 4° C., washed with water and then dehydrated in a series of alcohol solutions, embedded, and sliced with the thickness between 50 and 70 nm. TEM analysis was performed on Hitachi H8000 operating at 200 kV.

SMILES: COc1cccc2c1C(=O)c1c(O)c3c(c(O)c1C2=O)C[C@@](O)(C(=O)CO)C[C@@H]3O[C@H]1C[C@H](N)[C@H](O)[C@H](C)O1 [free DOX, Doxorubicin]
- speed of entry into cancer cells [1]: entered cancer cells faster than the DOX@PLGA/PD-C nanoparticles
- cell killing effect versus other treatments [2]: higher cell killing effect than other treatments except at 10 μM dose
- tumor recurrence / regrowth ([3]; 24-day observation): gradually bounced back 10 days post treatment
- tumor response after treatment ([3]; intratumoral, 40 μL, DOX equivalent 15 μg/mL, DOX@PLGA/PD-C coupled with NIR irradiation): only slightly reduced tumor size
- H&E staining of tumor tissue ([3]; tumors collected after 24 days): kept the characteristics of squamous cell carcinoma
- heart tissue structure (mitochondria) by TEM [4]: significantly compromised
